Experimental data reported in PubChem BioAssay (NCI).
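How tested: cells in 96-well plates exposed to compound for 48 hours at five concentrations. TGI marks complete inhibition of growth.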

Assays:
Assay in all cases: growth of human tumour cells (NCI), 48 h
[1] = test system: HCT-15 colon
[2] = test system: OVCAR-3 ovarian
[3] = test system: HOP-92 NSCLC
[4] = test system: SK-MEL-28 melanoma
[5] = test system: SR leukemia
[6] = test system: KM12 colon
[7] = test system: MDA-N
[8] = test system: SN12C renal
[9] = test system: M14 melanoma
[10] = test system: ACHN renal
[11] = test system: NCI-H460 lung
[12] = test system: UACC-257 melanoma
[13] = test system: RPMI-8226 leukemia
[14] = test system: K-562 leukemia
[15] = test system: BT-549 breast
[16] = test system: HCT-116 colon
[17] = test system: HCC-2998 colon
[18] = test system: OVCAR-5 ovarian
[19] = test system: T-47D breast
[20] = test system: TK-10 renal
[21] = test system: HL-60(TB) leukemia
[22] = test system: MDA-MB-231 breast
[23] = test system: MALME-3M melanoma
[24] = test system: EKVX NSCLC
[25] = test system: CAKI-1 renal
[26] = test system: UACC-62 melanoma
[27] = test system: RXF 393 renal
[28] = test system: SNB-19 CNS
[29] = test system: MDA-MB-435
[30] = test system: IGROV1 ovarian
[31] = test system: A498 renal
[32] = test system: SF-539 CNS
[33] = test system: HT29 colon
[34] = test system: SK-OV-3 ovarian
[35] = test system: SF-295 CNS
[36] = test system: UO-31 renal
[37] = test system: NCI-H23 lung
[38] = test system: COLO 205 colon
[39] = test system: MCF7 breast
[40] = test system: HS 578T breast
[41] = test system: SK-MEL-2 melanoma
[42] = test system: A549 NSCLC
[43] = test system: PC-3 prostate
[44] = test system: SK-MEL-5 melanoma
[45] = test system: U251 CNS
[46] = test system: NCI-H226 lung
[47] = test system: OVCAR-4 ovarian
[48] = test system: 786-0 renal
[49] = test system: CCRF-CEM leukemia
[50] = test system: HOP-62 NSCLC
[51] = test system: OVCAR-8 ovarian
[52] = test system: NCI/ADR-RES ovarian
[53] = test system: MOLT-4 leukemia
[54] = test system: SF-268 CNS
[55] = test system: NCI-H522 lung
[56] = test system: DU-145 prostate
[57] = test system: SNB-75 CNS
[58] = test system: SW-620 colon
[59] = test system: LOX IMVI melanoma

COC(=O)c1c(O)ccc2c1c1c(n2Cc2ccccc2Cl)C(=O)c2ccccc2C1=O
TGI [1]: 31.8 µM | TGI [2]: 21.8 µM | TGI [3]: 29.8 µM | TGI [4]: 29.4 µM | TGI [5]: 47.8 µM | TGI [6]: 24.1 µM | TGI [7]: 31.1 µM | TGI [8]: 23.2 µM | TGI [9]: 34 µM | TGI [10]: 36.7 µM | TGI [11]: 23.5 µM | TGI [12]: 32.8 µM | TGI [13]: 29.5 µM | TGI [14]: 97.3 µM | TGI [15]: 29.2 µM | TGI [16]: 31.2 µM | TGI [17]: 29.9 µM | TGI [18]: 39.4 µM | TGI [19]: 27.4 µM | TGI [20]: 30.6 µM | TGI [21]: 49.6 µM | TGI [22]: 32.3 µM | TGI [23]: 31.4 µM | TGI [24]: 32.5 µM | TGI [25]: 27.4 µM | TGI [26]: 30.2 µM | TGI [27]: 41.3 µM | TGI [28]: 33.7 µM | TGI [29]: 25.2 µM | TGI [30]: 28.3 µM | TGI [31]: 31.3 µM | TGI [32]: 30 µM | TGI [33]: 3.58 µM | TGI [34]: 27.2 µM | TGI [35]: 31.6 µM | TGI [36]: 24.8 µM | TGI [37]: 29.8 µM | TGI [38]: 15.8 µM | TGI [39]: 32.4 µM | TGI [40]: 59 µM | TGI [41]: 33.8 µM | TGI [42]: 26.7 µM | TGI [43]: 26.3 µM | TGI [44]: 26.4 µM | TGI [45]: 30.2 µM | TGI [46]: 36.6 µM | TGI [47]: 12.6 µM | TGI [48]: 36.4 µM | TGI [49]: 43.6 µM | TGI [50]: 47.9 µM | TGI [51]: 51.5 µM | TGI [52]: 39.3 µM | TGI [53]: 56.1 µM | TGI [54]: 29.4 µM | TGI [55]: 25.5 µM | TGI [56]: 29 µM

CCSc1sc(=Nc2ccc(N=c3sc(C)c(SC)s3)cc2)sc1-c1ccc(C)cc1
TGI [57]: > 100 µM | TGI [1]: > 100 µM | TGI [2]: > 100 µM | TGI [3]: > 100 µM | TGI [58]: > 100 µM | TGI [4]: > 100 µM | TGI [5]: > 100 µM | TGI [6]: > 100 µM | TGI [7]: > 100 µM | TGI [8]: > 100 µM | TGI [9]: > 100 µM | TGI [59]: > 100 µM | TGI [10]: > 100 µM | TGI [11]: > 100 µM | TGI [12]: > 100 µM | TGI [13]: > 100 µM | TGI [14]: > 100 µM | TGI [15]: > 100 µM | TGI [16]: > 100 µM | TGI [17]: > 100 µM | TGI [18]: > 100 µM | TGI [19]: > 100 µM | TGI [20]: > 100 µM | TGI [21]: > 100 µM | TGI [22]: > 100 µM | TGI [23]: > 100 µM | TGI [24]: > 100 µM | TGI [25]: > 100 µM | TGI [26]: > 100 µM | TGI [27]: > 100 µM | TGI [28]: > 100 µM | TGI [29]: > 100 µM | TGI [30]: > 100 µM | TGI [31]: > 100 µM | TGI [32]: > 100 µM | TGI [33]: > 100 µM | TGI [34]: > 100 µM | TGI [35]: > 100 µM | TGI [36]: > 100 µM | TGI [37]: > 100 µM | TGI [38]: > 100 µM | TGI [39]: > 100 µM | TGI [40]: > 100 µM | TGI [41]: > 100 µM | TGI [42]: > 100 µM | TGI [43]: > 100 µM | TGI [44]: > 100 µM | TGI [45]: > 100 µM | TGI [47]: > 100 µM | TGI [48]: > 100 µM | TGI [49]: > 100 µM | TGI [50]: > 100 µM | TGI [51]: > 100 µM | TGI [52]: > 100 µM | TGI [53]: > 100 µM | TGI [54]: > 100 µM | TGI [55]: > 100 µM | TGI [56]: > 100 µM
